# In PubChem BioAssay (NCI):
# “And” between values parts separate entries of the source, which are not always exact repeats. Identical values can stand only once.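 Assay format: 96-well plates, 48-hour exposure. The concentration for 50% growth inhibition is given as GI50. TGI denotes the concentration required for complete inhibition of growth.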
# Tested on: MDA-MB-468 breast
# Experiment: DTP human tumour cell line panel, 48 h
SMILES,GI50,TGI
CC(C)CCSC1=CC(=O)c2ccccc2C1=O,0.43 µM,2.19 µM
NC(=O)C1c2ccccc2C=Cc2ccccc21,78.6 µM,> 100 µM
O=C1Oc2ccccc2C(=O)/C1=C/N1C(=O)/C(=C/c2ccc3c(c2)OCO3)SC1=S,12.1 µM,42 µM
COc1cc(-c2nc(NC(C)=O)sc2-c2ccnc(NCCNS(=O)(=O)c3ccccc3)n2)ccc1Cl,2.56 µM,9.61 µM
CCN(CC)CCCC(C)Nc1cc(-c2ccc(C(F)(F)F)cc2)c(C#N)c2nc3ccccc3n12 (stereo unspecified),1.75 µM,3.35 µM
NC(=NCCCC1(c2ccccc2)CCCC1)Nc1ccc(Cl)cc1,1.65 µM,3.25 µM
C=C(C)[C@@H]1CC[C@]2(C(N)=O)CC[C@]3(C)[C@H](CC[C@@H]4[C@@]5(C)CC[C@H](O)C(C)(C)[C@@H]5CC[C@]43C)[C@@H]12,3.2 µM,11.9 µM
COC(=O)[C@H]1[C@@H](O)[C@@]2(O)c3c(OC)cc(O[C@@H]4O[C@@H]([C@H](O)CO)CO[C@H]4OC)cc3O[C@@]2(c2ccc(OC)cc2)[C@@H]1c1ccccc1,0.00293 µM,0.0112 µM
O=C(N/N=C/c1ccccc1O)C(O)(c1ccccc1)c1ccccc1,4.62 µM,> 100 µM
COc1ccc(CCN2CCCN3C2=Nc2ccccc2S3(=O)=O)cc1,0.312 µM,> 100 µM
Cc1ccc(S(=O)(=O)Oc2ccc([N+](=O)[O-])cc2[N+](=O)[O-])cc1,13.2 µM,28.4 µM
Cc1cc(C(=O)Nc2nc3cccc(Cl)c3n2[C@@H]2CCCCN(C(=O)/C=C/CN(C)C)C2)ccn1,0.102 µM,1.27 µM
COc1cc2c(F)nccc2cc1C(=O)N[C@@H](c1ccc(F)c(Cl)c1)[C@@H]1C[C@@H](O)CN1,0.0527 µM,2.33 µM
N#Cc1nc(-c2ccccc2)oc1S(=O)(=O)N1CCCCC1,10.2 µM,28.5 µM
COc1ccccc1/C=C/C(=O)c1c(O)cc2occc2c1OC,10.3 µM,45.5 µM
CCN1C(=O)N(CC)C2C1NN=c1s/c(=C\c3ccccc3F)c(=O)n12 (stereo unspecified),0.027 µM,> 48.1 µM
O=C(CCCCCCCn1cc(-c2cccnc2)nn1)Nc1ccccc1-c1ccccc1,4.74 µM,> 51.6 µM
O=C1CC2(CCOCC2)Oc2ncccc21,3.23 µM,15.3 µM
COC(=O)[C@H]1C(=O)[C@@]2(C)[C@H]([C@H](OC(=O)c3ccccc3)[C@]3(O)C[C@H](OC(=O)[C@H](O)[C@@H](NC(=O)c4ccc(F)cc4)c4ccccc4)C(C)=C1C3(C)C)[C@]1(OC(C)=O)CO[C@@H]1C[C@@H]2O,0.00874 µM,6.46 µM
CC(C)CC1C(=O)N2CCC[C@H]2C2(O)O[C@](NC(=O)C3C=C4c5cccc6[nH]c(Br)c(c56)C[C@H]4N(C)C3)(C(C)C)C(=O)N12 (stereo partly specified),3.09 µM,39.3 µM
C/C1=C/C(=O)O[C@@H]2C[C@@H](CC[C@H](C)/C=C\C=C\CC1)O[C@@](O)([C@@H]1CSC(=O)N1CO)C2,0.0243 µM,0.0765 µM

SMILES,GI50,TGI
Cc1ccc2c(c1)C(C)Cc1c(ncnc1-n1cnc3cc(C)ccc31)N2C (stereo unspecified),0.0414 µM,19 µM
CCNCCC1(CC)C(=O)NC(=O)NC1=O,> 100 µM,> 100 µM
O=C1/C=C/[C@@H](O)[C@@H]2C[C@@H](O)C[C@H]2/C=C/CCC[C@H](CCc2ccc(C(F)(F)F)cc2)O1,0.0281 µM,0.0829 µM
O=C1OC2C(O)COC2(O)C1(O)C(C[N+](=O)[O-])c1ccc(Cl)cc1 (stereo unspecified),16.9 µM,44 µM
O=C(c1ccc(OCCN2CCCCC2)cc1)c1c(-c2ccc(O)cc2)sc2cc(O)ccc12,3.04 µM and 3.13 µM,15.8 µM and 12.2 µM
COc1cccc(Cn2c(-c3nonc3N)nc3ccccc32)c1,0.312 µM,
CCC(CC)n1c(=O)c(SC2=NC3C(NN2)N(CC)C(=O)N3CC)c(C(=O)O)c2ccccc21 (stereo unspecified),0.92 µM,27.8 µM
CNC(=O)c1c(NC(=O)c2ccc(C(F)(F)F)cc2)sc2c1CCC(=O)C2,0.924 µM,3.8 µM
O=C1/C(=C\c2ccc(F)cc2)CN(C(=O)c2ccc([N+](=O)[O-])cc2)C/C1=C\c1ccc(F)cc1,1.38 µM,3.68 µM
CN1CCC(CNc2ccc3ncc(-c4cccc(OC(F)(F)F)c4)n3n2)CC1,1.24 µM and 1.11 µM,2.74 µM and 3.28 µM
CN[C@@H](C)C(=O)N[C@H]1CN(C(=O)CC(C)C)CC[C@H]2CC[C@@H](C(=O)NC(c3ccccc3)c3ccccc3)N2C1=O,39.2 µM,> 100 µM
COc1ccc(-c2nsc3c2NC(=O)CC3c2ccc(F)cc2)cc1 (stereo unspecified),2.18 µM,> 30 µM
Cn1cc(-c2csc(-c3cn(C)c4ccc(Br)cc34)n2)c2cnccc21,1.79 µM,3.46 µM
Cc1cccc(-c2nn3c(c2-c2ccnc4ccc(C(N)=O)cc24)CCC3)n1,> 100 µM,> 100 µM
Nc1ccccc1SC(CC(=O)c1ccccc1)c1ccc([N+](=O)[O-])cc1 (stereo unspecified),14.4 µM,31 µM
O=Nc1ccc(O)c2ccccc12,5.85 µM,27.4 µM
C[C@@H](N)C1CCC(C(=O)Nc2ccncc2)CC1 (stereo partly specified),> 100 µM,> 100 µM
Cc1ncc(C(=O)Nc2ccc(CN3CCN(C)CC3)c(C(F)(F)F)c2)cc1C#Cc1cnc(N)c2cnccc12,0.169 µM,1.69 µM
CCCCCCCCCCCCNC(=O)[C@H]1CSC(c2cc3ccccc3s2)N1 (stereo partly specified),1.09 µM,4.11 µM
COc1ccccc1-c1cc(/C=C2\C(=O)Nc3ncc(Br)cc32)cc(Br)c1O,7.4 µM,> 25 µM
